Test results: patent US20060293307A1, “Oxazolidinone derivatives as antimicrobials” (priority 2002, published 2006)
≈ marks a conversion by molar mass, not a printed value.

Experiments:
[1] = tested on: S. aureus ATCC 25923; test: MIC, agar incorporation method; type: cell-based, Staphylococcus aureus; settings: S. No. 1, organism cell empty
[2] = tested on: S. aureus (MRSA) 15187; test: MIC, agar incorporation method; type: cell-based, Staphylococcus aureus; settings: S. No. 4, S. aureus (MRSA) 15187
[3] = tested on: S. aureus (MRSA) 21299; test: MIC, agar incorporation method; type: cell-based, Staphylococcus aureus; settings: S. No. 5, S. aureus (MRSA) 21299
[4] = tested on: S. aureus (MRSA 33) Cipro R; test: MIC, agar incorporation method; type: cell-based, Staphylococcus aureus; settings: S. No. 7, S. aureus (MRSA 33) Cipro R
[5] = tested on: S. epidermidis ATCC 12228; test: MIC, agar incorporation method; type: cell-based, Staphylococcus epidermidis; settings: S. No. 10, S. epidermidis ATCC 12228
[6] = tested on: S. epidermidis (MRSE) 23760; test: MIC, agar incorporation method; type: cell-based, Staphylococcus epidermidis; settings: S. No. 11, S. epidermidis (MRSE) 23760
[7] = tested on: S. epidermidis 823; test: MIC, agar incorporation method; type: cell-based, Staphylococcus epidermidis; settings: S. No. 12, S. epidermidis 823
[8] = tested on: E. faecium 6A (VRE); test: MIC, agar incorporation method; type: cell-based, Enterococcus faecium; settings: S. No. 21, E. faecium 6A (VRE)
[9] = tested on: E. durans 581; test: MIC, agar incorporation method; type: cell-based; settings: S. No. 24, E. durans 581
[10] = tested on: E. coli 25922; test: MIC, agar incorporation method; type: cell-based; settings: S. No. 25, E. coli 25922
[11] = tested on: K. oxytoca 49131; test: MIC, agar incorporation method; type: cell-based; settings: S. No. 27, K. oxytoca 49131
[12] = tested on: Acinetobacter 9956; test: MIC, agar incorporation method; type: cell-based; settings: S. No. 30, Acinetobacter 9956
[13] = tested on: S. pneumoniae AB4; test: MIC, agar incorporation method; type: cell-based, Streptococcus pneumoniae; settings: S. No. 33, S. pneumoniae AB4
[14] = tested on: S. pneumoniae AB 10; test: MIC, agar incorporation method; type: cell-based, Streptococcus pneumoniae; settings: S. No. 35, S. pneumoniae AB 10
[15] = tested on: S. pneumoniae AB 31; test: MIC, agar incorporation method; type: cell-based, Streptococcus pneumoniae; settings: S. No. 36, S. pneumoniae AB 31
[16] = tested on: S. pneumoniae AB 14; test: MIC, agar incorporation method; type: cell-based, Streptococcus pneumoniae; settings: S. No. 37, S. pneumoniae AB 14
[17] = tested on: S. pneumoniae 217; test: MIC, agar incorporation method; type: cell-based, Streptococcus pneumoniae; settings: S. No. 38, S. pneumoniae 217
[18] = tested on: S. pneumoniae AB 16; test: MIC, agar incorporation method; type: cell-based, Streptococcus pneumoniae; settings: S. No. 39, S. pneumoniae AB 16
[19] = tested on: S. pneumoniae AB 21; test: MIC, agar incorporation method; type: cell-based, Streptococcus pneumoniae; settings: S. No. 41, S. pneumoniae AB 21
[20] = tested on: S. pneumoniae AB 23; test: MIC, agar incorporation method; type: cell-based, Streptococcus pneumoniae; settings: S. No. 43, S. pneumoniae AB 23
[21] = tested on: S. pneumoniae ATCC 6303; test: MIC, agar incorporation method; type: cell-based, Streptococcus pneumoniae; settings: S. No. 50, S. pneumoniae ATCC 6303
[22] = tested on: S. pyogenes 20361; test: MIC, agar incorporation method; type: cell-based, Streptococcus pyogenes; settings: S. No. 53, S. pyogenes 20361
[23] = tested on: S. pneumoniae 1251; test: MIC, agar incorporation method; type: cell-based, Streptococcus pneumoniae; settings: S. No. 54, S. pneumoniae 1251
[24] = tested on: Moraxella M1; test: MIC, agar incorporation method; type: cell-based; settings: S. No. 58, Moraxella M1
[25] = tested on: Moraxella cata. M2; test: MIC, agar incorporation method; type: cell-based; settings: S. No. 59, Moraxella cata. M2
[26] = tested on: H. influenzae R; test: MIC against Haemophilus strains; type: cell-based; settings: s. No. 4, H. influenzae R
[27] = tested on: H. influenzae P318; test: MIC against Haemophilus strains; type: cell-based; settings: s. No. 10, H. influenzae P318

Structure (SMILES) | MIC [1] [µg/mL] | MIC [2] [µg/mL] | MIC [3] [µg/mL] | MIC [4] [µg/mL] | MIC [5] [µg/mL] | MIC [6] [µg/mL] | MIC [7] [µg/mL] | MIC [8] [µg/mL] | MIC [9] [µg/mL] | MIC [10] [µg/mL] | MIC [11] [µg/mL] | MIC [12] [µg/mL] | MIC [13] [µg/mL] | MIC [14] [µg/mL] | MIC [15] [µg/mL] | MIC [16] [µg/mL] | MIC [17] [µg/mL] | MIC [18] [µg/mL] | MIC [19] [µg/mL] | MIC [20] [µg/mL] | other results
CC(=O)NC[C@H]1CN(c2ccc(N3CCN(c4cc(C(OC(C)=O)OC(C)=O)sc4[N+](=O)[O-])CC3)c(F)c2)C(=O)O1 [Compound No. 5, (S)—N-[[3-[3-Fluoro-4-[4-{3-thienyl(2-nitro)-5-acetyloxy}methylacetate]-1-piperazinyl]phenyl]-2-oxo-5-oxazolidinyl]acetamide] | 0.5 (≈ 0.842 µM) | 0.25 (≈ 0.421 µM) | 0.25 (≈ 0.421 µM) | 0.25 (≈ 0.421 µM) | <0.06 | <0.06 | <0.06 | 2 (≈ 3.37 µM) | 2 (≈ 3.37 µM) | >8 | >8 | >8 | 0.5 (≈ 0.842 µM) | 0.25 (≈ 0.421 µM) | 0.5 (≈ 0.842 µM) | 0.5 (≈ 0.842 µM) | 0.5 (≈ 0.842 µM) | 0.5 (≈ 0.842 µM) | 0.5 (≈ 0.842 µM) | 0.5 (≈ 0.842 µM) | MIC [21]: 0.5 µg/mL (≈ 0.842 µM); MIC [22]: 0.5 µg/mL (≈ 0.842 µM); MIC [23]: 0.5 µg/mL (≈ 0.842 µM); MIC [24]: 4 µg/mL (≈ 6.74 µM); MIC [25]: 2 µg/mL (≈ 3.37 µM); MIC [26]: 16 µg/mL (≈ 27 µM); MIC [27]: >16 µg/mL
O=C(NC[C@H]1CN(c2ccc(N3CCN(c4ccc([N+](=O)[O-])s4)CC3)c(F)c2)C(=O)O1)C(Cl)Cl [compound 9, (S)—N-[[3-[-3-Fluoro-4-[N-1-(5-nitro-2-thienyl)-piperazinyl]phenyl] -2-oxo-5-oxazolidinyl]methyl]dichloroacetamide] | 2 (≈ 3.76 µM) | 1 (≈ 1.88 µM) | 1 (≈ 1.88 µM) | 1 (≈ 1.88 µM) | 0.25 (≈ 0.47 µM) | 0.5 (≈ 0.939 µM) | 0.5 (≈ 0.939 µM) | 0.5 (≈ 0.939 µM) | 0.5 (≈ 0.939 µM) | >8 | >8 | >8 | 0.25 (≈ 0.47 µM) | 0.25 (≈ 0.47 µM) | 0.25 (≈ 0.47 µM) | 0.25 (≈ 0.47 µM) | 0.25 (≈ 0.47 µM) | 0.25 (≈ 0.47 µM) | 0.25 (≈ 0.47 µM) | 0.25 (≈ 0.47 µM) | MIC [21]: 0.25 µg/mL (≈ 0.47 µM); MIC [22]: 0.5 µg/mL (≈ 0.939 µM); MIC [23]: 0.25 µg/mL (≈ 0.47 µM); MIC [24]: 1 µg/mL (≈ 1.88 µM); MIC [25]: 1 µg/mL (≈ 1.88 µM); MIC [26]: >16 µg/mL; MIC [27]: >16 µg/mL
